ChEMBL document CHEMBL3232928, “Fragment-to-hit-to-lead discovery of a novel pyridylurea scaffold of ATP competitive dual targeting type II topoisomerase inhibiting antibacterial agents” (J Med Chem, 2013)
≈ marks a conversion by molar mass, not a printed value.

Experiments:
[1] = Inhibition of ATPase activity in Escherichia coli GyrA/GyrB by ammonium molybdate/malachite green-based absorbance assay
Staphylococcus aureus [2] = assay: Antibacterial activity against methicillin-sensitive wild type Staphylococcus aureus assessed as growth inhibition after 18 to 24 hrs by CLSI broth microdilution method; format: functional
Escherichia coli [3] = assay: Antibacterial activity against tolC efflux pump deficient Escherichia coli W3110 assessed as growth inhibition after 18 to 24 hrs by CLSI broth microdilution method; format: functional
[4] = Inhibition of ATPase activity in Escherichia coli ParC/ParE by ammonium molybdate/malachite green-based absorbance assay
[5] = Antibacterial activity against wild type Haemophilus influenzae Rd KW20 ATCC 51907 assessed as growth inhibition after 18 to 24 hrs by CLSI broth microdilution method; format: functional
[6] = Inhibition of ATPase activity in Escherichia coli ParE by ammonium molybdate/malachite green-based absorbance assay
Moraxella catarrhalis = assay: Antibacterial activity against wild type Moraxella catarrhalis ATCC 43617 assessed as growth inhibition after 18 to 24 hrs by CLSI broth microdilution method; format: functional
[7] = Antibacterial activity against Streptococcus pneumoniae D39 NCTC 7466 assessed as growth inhibition after 18 to 24 hrs by CLSI broth microdilution method; format: functional
Escherichia coli [8] = assay: Antibacterial activity against wild type Escherichia coli W3110 assessed as growth inhibition after 18 to 24 hrs by CLSI broth microdilution method; format: functional
[9] = Octanol-phosphate buffer partition coefficient, log D of the compound at pH 7.4 after 1 hr by shake flask method; format: physicochemical
DNA gyrase subunit B = DNA gyrase subunit B (Staphylococcus aureus, UniProt P0A0K8); assay: Inhibition of ATPase activity in Staphylococcus aureus GyrB tetramer in presence of Escherichia coli GyrA by ammonium molybdate/malachite green-based absorbance assay
[10] = Clearance in rat plasma at 10 mg/kg, iv administered 15 mins of infusion measured for 0 to 24 hrs by LC-MS/MS analysis; format: ADME, organism-based; set-up: dose 10 mg/kg, route intravenous
[11] = Solubility of the compound; format: physicochemical
Staphylococcus aureus [12] = assay: Antibacterial activity against methicillin-resistant and […] Staphylococcus aureus assessed as growth inhibition after 18 to 24 hrs by CLSI broth microdilution method; format: functional
[13] = Unbound fraction in human at 10 uM after 16 hrs by LC-MS/MS analysis; format: ADME; conditions: plasma

DNA gyrase subunit B, sequence (P0A0K8 whole entry, the tested form may be a part): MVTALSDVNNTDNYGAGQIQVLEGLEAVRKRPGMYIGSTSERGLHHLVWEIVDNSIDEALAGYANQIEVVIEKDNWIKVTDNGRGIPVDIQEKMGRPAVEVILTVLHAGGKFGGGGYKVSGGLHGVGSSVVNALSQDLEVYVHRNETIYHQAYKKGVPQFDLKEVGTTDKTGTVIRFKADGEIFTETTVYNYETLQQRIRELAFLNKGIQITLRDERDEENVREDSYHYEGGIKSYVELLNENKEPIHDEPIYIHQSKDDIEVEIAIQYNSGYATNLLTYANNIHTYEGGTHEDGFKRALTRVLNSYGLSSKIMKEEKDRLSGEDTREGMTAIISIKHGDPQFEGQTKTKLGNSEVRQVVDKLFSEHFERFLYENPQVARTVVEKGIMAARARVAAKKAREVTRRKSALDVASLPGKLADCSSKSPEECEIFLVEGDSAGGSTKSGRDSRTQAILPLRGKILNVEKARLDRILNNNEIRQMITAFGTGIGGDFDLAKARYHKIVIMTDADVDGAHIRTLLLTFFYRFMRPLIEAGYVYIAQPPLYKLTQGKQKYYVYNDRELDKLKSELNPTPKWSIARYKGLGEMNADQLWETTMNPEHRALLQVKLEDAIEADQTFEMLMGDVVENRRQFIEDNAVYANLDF

Structure (SMILES) | IC50 [1] [µM] | MIC (Staphylococcus aureus [2]) [µg/mL] | MIC (Escherichia coli [3]) [µg/mL] | IC50 [4] [µM] | MIC [5] [µg/mL] | IC50 [6] [µM] | MIC (Moraxella catarrhalis) [µg/mL] | MIC [7] [µg/mL] | MIC (Escherichia coli [8]) [µg/mL] | logD at 1 h [9] | IC50 (DNA gyrase subunit B) [µM] | clearance [10] [mL/min/kg] | solubility [11] [µM] | MIC (Staphylococcus aureus [12]) [µg/mL] | fraction unbound at 16 h, 10 µM [13]
CCNC(=O)Nc1ccc(-c2cncc(C(=O)O)c2)cn1 | 1.4 | > 64 | > 64 | 24 | > 64 | 0.4 | > 64 | > 64 | > 64 |  |  |  |  |  | 
CCNC(=O)Nc1cc(-c2noc(C)n2)c(-c2cncc(C(=O)O)c2)cn1 |  | > 64 | > 64 |  | > 64 | 0.15 |  | > 64 | > 64 | -2.1 |  |  |  |  | 
CCNC(=O)Nc1cc(-c2ccccc2)c(-c2cncc(C(=O)O)c2)cn1 | 0.096 | > 64 | 36 (≈ 99.3 µM) | 2 | > 64 | 0.17 | > 64 | 4.5 (≈ 12.4 µM) | > 64 | -0.31 | 0.06 |  |  |  | 
CCNC(=O)Nc1ccc(Oc2cccc(C(=O)O)c2)cn1 | 4.4 | > 64 | > 64 | > 200 | > 64 | 16 | > 64 | > 64 | > 64 |  | 9.9 |  |  |  | 
CCNC(=O)Nc1cc(-c2nc(C(F)(F)F)cs2)c(-c2cncc(/C(N)=N/O)c2)cn1 | 0.032 | 0.36 (≈ 0.797 µM) | 0.18 (≈ 0.399 µM) | 2 | 1.4 (≈ 3.1 µM) | 0.021 | 0.18 (≈ 0.399 µM) | < 0.01 | > 64 | 2.2 | 0.073 | 22 | 4 (≈ 1.81 µg/mL) | 0.72 (≈ 1.59 µM) | 0.35
CNC(=O)Nc1ccccn1 |  |  |  |  |  |  |  |  |  |  | 100 |  |  |  | 
CCNC(=O)Nc1ccc(-c2nc3cccc(C(=O)O)c3s2)cn1 |  | > 64 | 8 (≈ 23.4 µM) | 2.1 | 16 (≈ 46.7 µM) |  | 8 (≈ 23.4 µM) | 2 (≈ 5.84 µM) | > 64 |  | 0.1 |  |  |  | 
CCNC(=O)Nc1ccc(-c2nc3cccc(C(N)=O)c3s2)cn1 | 0.094 | > 64 | > 64 | 12 | > 64 | 0.071 | > 64 | 1 (≈ 2.93 µM) | > 64 |  | 0.039 |  | < 1 |  | 
CCNC(=O)Nc1cc(-c2cccnc2)c(-c2cncc(C(=O)O)c2)cn1 | 0.3 | > 64 | > 64 | 10 | > 64 | 0.31 | > 64 | > 64 | > 64 | -1.5 | 0.27 |  |  |  | 
CCNC(=O)Nc1ccccc1 |  |  |  |  |  |  |  |  |  |  | > 1000 |  |  |  | 
CCNC(=O)Nc1cc(-c2nc(C(C)(C)C)cs2)c(-c2cncc(C(=O)O)c2)cn1 | 0.012 | > 64 | 11 (≈ 25.9 µM) | 2.3 | 43 (≈ 101 µM) | 0.072 | 43 (≈ 101 µM) | 0.66 (≈ 1.55 µM) | > 64 | 0.12 | 0.03 |  |  |  | 
CCNC(=O)Nc1ccc(-c2ccc(C(=O)O)cc2)cn1 | 1.6 | > 64 | 16 (≈ 56.1 µM) | 28 | 16 (≈ 56.1 µM) | 0.054 | 4 (≈ 14 µM) |  | > 64 |  | 0.88 |  |  |  | 
CCCNC(=O)Nc1ccccn1 |  |  |  |  |  |  |  |  |  |  | > 1000 |  |  |  | 
CCNC(=O)Nc1ccc(-c2nc(C(=O)O)cs2)cn1 |  | > 64 |  |  | > 64 |  | > 64 | > 64 | > 64 |  | 3.6 |  |  |  | 
CCNC(=O)Nc1ccc(-c2ncc(C(=O)O)s2)cn1 | 0.24 | > 64 |  | 8.8 | > 64 | 0.11 | > 64 | 64 (≈ 219 µM) | > 64 |  | 0.27 |  |  |  | 
CCNC(=O)Nc1cc(-c2nc(C(F)(F)F)cs2)c(-c2ncc(C(=O)O)s2)cn1 | < 0.01 | > 64 | 22 (≈ 49.6 µM) | 0.94 | > 64 | < 0.01 | 44 (≈ 99.2 µM) | 2.8 (≈ 6.31 µM) | > 64 |  | < 0.01 |  |  | 44 (≈ 99.2 µM) | 

Structure (SMILES) | IC50 [1] [µM] | MIC (Staphylococcus aureus [2]) [µg/mL] | MIC (Escherichia coli [3]) [µg/mL] | IC50 [4] [µM] | MIC [5] [µg/mL] | IC50 [6] [µM] | MIC (Moraxella catarrhalis) [µg/mL] | MIC [7] [µg/mL] | MIC (Escherichia coli [8]) [µg/mL] | logD at 1 h [9] | IC50 (DNA gyrase subunit B) [µM] | clearance [10] [mL/min/kg] | solubility [11] [µM] | MIC (Staphylococcus aureus [12]) [µg/mL] | fraction unbound at 16 h, 10 µM [13]
CCNC(=O)Nc1cc(-c2ccncc2)c(-c2cncc(C(=O)O)c2)cn1 | 0.24 | > 9 | > 9 | 11 | > 9 | 0.31 | > 9 | > 9 | > 9 | -0.82 | 0.32 |  |  |  | 
CCNC(=O)Nc1ccc(-c2cccnc2)cn1 | 2 | > 48 | > 48 | 80 | > 48 | 1.4 | > 48 |  | > 48 |  | 2.7 |  |  | > 64 | 
CCNC(=O)Nc1ccc(-c2cccc(C(=O)O)c2)cn1 | 4.7 | > 64 | > 64 | 69 | 59 (≈ 207 µM) | 2 | 42 (≈ 147 µM) | 21 (≈ 73.6 µM) | > 64 |  | 3.4 |  |  |  | 
CCN(CC)C(=O)Nc1ccccn1 |  |  |  |  |  |  |  |  |  |  | 38 |  |  |  | 
CCNC(=O)Nc1cc(Cl)c(-c2cncc(C(=O)O)c2)cn1 | 0.058 | > 64 | > 64 | 4.3 | > 64 | 0.022 | > 64 | 4 (≈ 12.5 µM) | > 64 | -1.1 | 0.13 |  |  |  | 
O=C(Nc1ccccn1)NC1CC1 |  |  |  |  |  |  |  |  |  |  | 1000 |  |  |  | 
CCNC(=O)Nc1ccccn1 |  |  |  |  |  |  |  |  |  |  | 32 |  |  |  | 
CCNC(=O)Nc1cc(-c2nc(C(F)(F)F)cs2)c(-c2nc3cccc(C(=O)O)c3s2)cn1 | < 0.01 | 3.1 (≈ 6.28 µM) | 0.8 (≈ 1.62 µM) | 0.36 | 12 (≈ 24.3 µM) | < 0.01 | 1.6 (≈ 3.24 µM) | 0.05 (≈ 0.101 µM) | > 64 | 0.73 | < 0.01 |  |  | 6.1 (≈ 12.4 µM) | 
CCOC(=O)Nc1ccccn1 |  |  |  |  |  |  |  |  |  |  | > 1000 |  |  |  | 
CCNC(=O)Nc1ncccn1 |  |  |  |  |  |  |  |  |  |  | 80 |  |  |  | 
CCNC(=O)Nc1cc(-c2nc(C(F)(F)F)cs2)c(-c2cncc(-c3c(C)noc3C)c2)cn1 | 0.068 | > 9 | > 9 | 4.8 | > 9 | 0.053 |  | 4.6 (≈ 9.42 µM) | > 9 | 3.5 | 0.3 |  | 6 (≈ 2.93 µg/mL) |  | 0.045
C#CCNC(=O)Nc1ccccn1 |  |  |  |  |  |  |  |  |  |  | 350 |  |  |  | 
CCNC(=O)Nc1nc2ccccc2[nH]1 |  |  |  |  |  |  |  |  |  |  | 64 |  |  |  | 
O=C(NCC(F)(F)F)Nc1ccccn1 |  |  |  |  |  |  |  |  |  |  | > 1000 |  |  |  | 
CCNC(=O)Nc1cc(Br)c(-c2cncc(C(=O)O)c2)cn1 | 0.068 | > 9 | > 9 | 4.8 | > 9 | 0.053 |  | 4.6 (≈ 12.6 µM) | > 9 | -1 | 0.3 |  |  |  | 
CCNC(=O)Nc1ccc(-c2ncc(C(N)=O)s2)cn1 | 0.56 | 64 (≈ 220 µM) | 16 (≈ 54.9 µM) | 27 | 32 (≈ 110 µM) | 0.38 | 8 (≈ 27.5 µM) | 4 (≈ 13.7 µM) | > 64 |  | 0.55 |  |  | > 64 | 
